For the assay, the system named is multidrug resistant strain of Plasmodium yoelii Nigeriensis. Description: Antimalarial activity against multidrug resistant P. yoelii in swiss mice. It is filed as in vivo. As to conditions: for % Suppression on Day 4 / inhibition in vivo at 96 mg/kg: 4 consecutive days (day 0-3), parasitaemia vs vehicle control; for Cured/treated: observed till day 28; for inhibition in vivo at 96 mg/kg / responders at 96 mg/kg: Plasmodium yoelii; for inhibition in vivo at 96 mg/kg: 96 h, read-out: % Suppression on Day 4; for responders at 96 mg/kg: 672 h, observed till day 28, read-out: Cured/treated (converted).

These results are taken from patent US6737438B2, “Substituted 1,2,4-trioxanes useful as antimalarial agents and a process for the preparation thereof” (Council of Scientific and Industrial Research, priority 2002, dated 2004).

Like-named read-outs stand apart in the source and are kept apart here.

Take “8-[(4′-cyclooctylphenyl)vinyl]-6,7,10-trioxaspiro(4,5)undecane [Trioxane 7de]”: the “% Suppression on Day 4” value (i.m., 96 mg/kg) was found to be 57.4% and the “% Suppression on Day 4” value (oral, 96 mg/kg) turned out to be 100%. The Cured/treated is, setting by setting: (i.m., 96 mg/kg) 0/5; (oral, 96 mg/kg) 3/5.

Take `C=C(c1ccc(C2CCCCC2)cc1)C1COC2(CCC(c3ccccc3)CC2)OO1` (mixture of isomers) [Trioxane 7be]: where the note is “i.m., 96 mg/kg”, the “% Suppression on Day 4” value amounted to 91.6% and the Cured/treated is reported as 0/5. Further, where the note is “oral, 48 mg/kg”, the “% Suppression on Day 4” value was determined as 100% and the Cured/treated is 5/5.

For the molecule `C(=CC1COC2(CCCC2)OO1)c1ccc(C2CCCC2)cc1` (stereo not shown) [Trioxane 7aa, 8-[(4′-Cyclopentylphenyl)vinyl]-6,7,10-trioxaspiro-[4,5]-decane], for the setting “i.m., 96 mg/kg”, the “% Suppression on Day 4” value was 100% and the Cured/treated is given as 0/5. For the same molecule, under “oral, 96 mg/kg”, the “% Suppression on Day 4” value worked out at 100% and the Cured/treated was 5/5.

Consider `C=C(c1ccc(C2CCCC2)cc1)C1COC2(CCC(c3ccccc3)CC2)OO1` (stereo not shown) [Trioxane 7ab], for which, for the setting “i.m., 96 mg/kg”, the “% Suppression on Day 4” value amounted to 77.56% and the Cured/treated is on record as 0/5. Moreover, where the note is “oral, 96 mg/kg”, the “% Suppression on Day 4” value was 100% and the Cured/treated is on record as 0/5.

With `C(=CC1COC2(CCCCC2)OO1)c1ccc(C2CCCC2)cc1` (stereo not shown) [Trioxane 7ac, 3-[(4′-cyclopentylphenyl)vinyl]-1,2,5-trioxaspiro(5,5)undecane], for the setting “i.m., 96 mg/kg”, the “% Suppression on Day 4” value was determined as 84.94% and the Cured/treated is on record as 0/5. Moreover, for the setting “oral, 96 mg/kg”, the “% Suppression on Day 4” value amounted to 100% and the Cured/treated is on record as 5/5.

As to `C(=CC1COC2(CCCCCC2)OO1)c1ccc(C2CCCC2)cc1` (stereo not shown) [Trioxane 7ad], where the note is “i.m., 96 mg/kg”, the “% Suppression on Day 4” value amounted to 48% and the Cured/treated is on record as 0/5. For the same molecule, for the setting “oral, 96 mg/kg”, the “% Suppression on Day 4” value is 88.68% and the Cured/treated is listed as 0/5.

As for `C=C(c1ccc(C2CCCC2)cc1)C1COC2(CCC(C(C)(C)CC)CC2)OO1` (stereo not shown) [Trioxane 7ae], under “i.m., 96 mg/kg”, the “% Suppression on Day 4” value amounted to 43.58% and the Cured/treated was 0/5. Moreover, where the note is “oral, 96 mg/kg”, the “% Suppression on Day 4” value was 100% and the Cured/treated was 0/5.

`C(=CC1COC(c2ccccc2)OO1)c1ccc(C2CCCCC2)cc1` (stereo not shown) [Trioxane 7bc, 6-[(4′-cyclohexylphenyl)vinyl]-3-phenyl-1,2,4-trioxane]: for the setting “i.m., 96 mg/kg”, the “% Suppression on Day 4” value came out at 41.98% and the Cured/treated is on record as 0/5. In addition, under “oral, 96 mg/kg”, the “% Suppression on Day 4” value came out at 95.64% and the Cured/treated is given as 0/5.

As to `C(=CC1COC2(CCCCC2)OO1)c1ccc(C2CCCCC2)cc1` (stereo not shown) [Trioxane 7bd, 3-[(4′-Cyclohexylphenyl)vinyl]-1,2,5-trioxaspiro(5,5)undecane], the “% Suppression on Day 4” value (i.m., 96 mg/kg) came out at 71.73% and the “% Suppression on Day 4” value (oral, 96 mg/kg) turned out to be 100%. Besides, the Cured/treated (i.m., 96 mg/kg) was 0/5 and the Cured/treated (oral, 96 mg/kg) is reported as 5/5.

For `CCC1(C)OCC(C=Cc2ccc(C3CCCCC3)cc2)OO1` (stereo not shown) [Trioxane 7bf], where the note is “i.m., 96 mg/kg”, the “% Suppression on Day 4” value is 71.26% and the Cured/treated is recorded as 0/5. Further, where the note is “oral, 96 mg/kg”, the “% Suppression on Day 4” value was 100% and the Cured/treated is reported as 0/5.

For the molecule `C(=CC1COC2(CCCC2)OO1)c1ccc(C2CCCCC2)cc1` (stereo not shown) [Trioxane 7bh, 8-[(4′-cyclohexylphenyl)vinyl]-6,7,10-trioxaspiro (4,5) decane], for the setting “i.m., 96 mg/kg”, the “% Suppression on Day 4” value worked out at 100% and the Cured/treated was 1/4. For the same molecule, where the note is “oral, 96 mg/kg”, the “% Suppression on Day 4” value is given as 100% and the Cured/treated is 4/4.

Turning to `C=C(c1ccc(C2CCCCC2)cc1)C1COC2(CCC(C(C)(C)CC)CC2)OO1` (stereo not shown) [Trioxane 7bi], for the setting “i.m., 96 mg/kg”, the “% Suppression on Day 4” value worked out at 53.01% and the Cured/treated is listed as 0/5. Where the note is “oral, 96 mg/kg”, the “% Suppression on Day 4” value was 100% and the Cured/treated is given as 5/5.

Turning to `C(=CC1COC2(CCCCC2)OO1)c1ccc(C2CCCCCC2)cc1` (stereo not shown) [Trioxane 7ca, 3-[(4′-cycloheptylphenyl)vinyl]-1,2,5-trioxaspiro-[5,5]-undecane], under “i.m., 96 mg/kg”, the “% Suppression on Day 4” value was determined as 62.18% and the Cured/treated is reported as 0/5. In addition, where the note is “oral, 96 mg/kg”, the “% Suppression on Day 4” value is recorded as 100% and the Cured/treated is on record as 1/5.

In the case of `C=C(c1ccc(C2CCCCCC2)cc1)C1COC2(CCC(C(C)(C)CC)CC2)OO1` (stereo not shown) [Trioxane 7cb], the “% Suppression on Day 4” value reads like this: (i.m., 96 mg/kg) 86.31%; (oral, 96 mg/kg) 100%. Further, the Cured/treated by setting is: (i.m., 96 mg/kg) 0/5; (oral, 96 mg/kg) 5/5.

On to `C=C(c1ccc(C2CCCCCC2)cc1)C1COC2(CCC(c3ccccc3)CC2)OO1` (stereo not shown) [Trioxane 7cd], for which, under “i.m., 96 mg/kg”, the “% Suppression on Day 4” value was 58.17% and the Cured/treated was 0/5. Further, under “oral, 96 mg/kg”, the “% Suppression on Day 4” value is recorded as 100% and the Cured/treated is 2/5.

`C(=CC1COC2(CCCCC2)OO1)c1ccc(C2CCCCCCC2)cc1` (stereo not shown) [Trioxane 7db, 3-[(4′-cyclooctylphenyl)vinyl]-1,2,5-trioxaspiro-(5,5)-undecane]: where the note is “i.m., 96 mg/kg”, the “% Suppression on Day 4” value was 9.5% and the Cured/treated is given as 0/5. For the setting “oral, 96 mg/kg”, the “% Suppression on Day 4” value stood at 100% and the Cured/treated is listed as 5/5.

For `C=C(c1ccc(C2CCCCCCC2)cc1)C1COC2(CCC(c3ccccc3)CC2)OO1` (stereo not shown) [Trioxane 7dd], where the note is “i.m., 96 mg/kg”, the “% Suppression on Day 4” value is on record as 73.81% and the Cured/treated was 0/5. Besides, where the note is “oral, 96 mg/kg”, the “% Suppression on Day 4” value was 100% and the Cured/treated is 4/5.

Turning to `C=C(c1ccc(C2CCCCCCC2)cc1)C1COC2(CCC(C(C)(C)CC)CC2)OO1` (stereo not shown) [Trioxane 7df], under “i.m., 96 mg/kg”, the “% Suppression on Day 4” value was 0% and the Cured/treated was 0/5. In addition, under “oral, 96 mg/kg”, the “% Suppression on Day 4” value came to 100% and the Cured/treated was 3/5.

As for `C(=CC1COC2(CCCC2)OO1)c1ccc(-c2ccccc2)cc1` (stereo not shown) [Trioxane 7eb, 8-[([1,1′-biphenyl]-4yl)vinyl]-6,7,10-trioxaspiro (4,5) decane], under “oral, 96 mg/kg”, the inhibition in vivo at 96 mg/kg is 100% and the responders at 96 mg/kg is 0%. Also, where the note is “im, i.m., 96 mg/kg”, the inhibition in vivo at 96 mg/kg was found to be 100% and the responders at 96 mg/kg is 100%.

In the case of `C(=CC1COC2(CCCCC2)OO1)c1ccc(-c2ccccc2)cc1` (stereo not shown) [Trioxane 7ec, 3-[([1,1′-biphenyl]-4yl)vinyl]-1,2,5-trioxaspiro (5,5) undecane], under “oral, 96 mg/kg”, the inhibition in vivo at 96 mg/kg came out at 100% and the responders at 96 mg/kg was 100%. For the same molecule, for the setting “im, i.m., 96 mg/kg”, the inhibition in vivo at 96 mg/kg was determined as 100% and the responders at 96 mg/kg was 0%.

Consider `C=C(c1ccc(-c2ccccc2)cc1)C1COC2(CCC(c3ccccc3)CC2)OO1` (stereo not shown) [Trioxane 7ef], for which, where the note is “i.m., 96 mg/kg”, the “% Suppression on Day 4” value came out at 42.7% and the Cured/treated is listed as 0/5. Where the note is “oral, 96 mg/kg”, the “% Suppression on Day 4” value was 100% and the Cured/treated is 2/5.

For the molecule `C=C(c1ccc(-c2ccccc2)cc1)C1COC2(CCC(C(C)(C)CC)CC2)OO1` (stereo not shown) [Trioxane 7eg], the “% Suppression on Day 4” value runs as follows: (i.m., 96 mg/kg) 87.6%; (oral, 96 mg/kg) 100%. The Cured/treated by setting is: (i.m., 96 mg/kg) 0/5; (oral, 96 mg/kg) 3/5.

`C(=CC1COC2(CCCCCC2)OO1)c1ccc(-c2ccccc2)cc1` (stereo not shown) [Trioxane 7eh, 3[([1,1′-biphenyl]-4yl)vinyl]-1,2,5-trioxaspiro(5,6)dodecane]: where the note is “oral, 96 mg/kg”, the inhibition in vivo at 96 mg/kg came out at 100% and the responders at 96 mg/kg is 80%. For the same molecule, where the note is “im, i.m., 96 mg/kg”, the inhibition in vivo at 96 mg/kg was determined as 92% and the responders at 96 mg/kg was 0%.

Take `CC1(C)OCC(C=Cc2ccc(-c3ccc(Br)cc3)cc2)OO1` (stereo not shown) [Trioxane 7fa, 3,3-Dimethyl-6-[(4′-bromo-[1,1′-biphenyl]-4-yl)-vinyl]-1,2,4-trioxane]: for the setting “im, i.m., 96 mg/kg”, the inhibition in vivo at 96 mg/kg is 83.7% and the responders at 96 mg/kg is 0%. The “% Suppression on Day 4” value (oral, 96 mg/kg) is “died”.

With `CCC1(C)OCC(C=Cc2ccc(-c3ccc(Br)cc3)cc2)OO1` (stereo not shown) [Trioxane 7fb, 3-Ethyl-3-methly-6-[(4′-bromo-[1,1′-biphenyl]-4-yl)-vinyl]-1,2,4-trioxane], the “% Suppression on Day 4” value is 51.41% (i.m., 96 mg/kg) and 100% (oral, 96 mg/kg). For the same molecule, the Cured/treated runs as follows: (i.m., 96 mg/kg) 0/5; (oral, 96 mg/kg) 0/5.

For `Brc1ccc(-c2ccc(C=CC3COC4(CCCCC4)OO3)cc2)cc1` (stereo not shown) [Trioxane 7fc, 3-[(4′-bromo-[1,1′-biphenyl]-4-yl)-vinyl]-1,2,5-trioxaspiro (5,5) undecane], where the note is “oral, 96 mg/kg”, the inhibition in vivo at 96 mg/kg is 100% and the responders at 96 mg/kg is 100%. For the same molecule, where the note is “im, i.m., 96 mg/kg”, the inhibition in vivo at 96 mg/kg was found to be 46.4% and the responders at 96 mg/kg is 20%.

Regarding `C=C(c1ccc(-c2ccc(Br)cc2)cc1)C1COC2(CCC(C(C)(C)CC)CC2)OO1` (stereo not shown) [Trioxane 7fd], for the setting “i.m., 48 mg/kg”, the “% Suppression on Day 4” value came to 51.09% and the Cured/treated is recorded as 0/5. Further, where the note is “oral, 96 mg/kg”, the “% Suppression on Day 4” value was 88.39% and the Cured/treated is recorded as 0/5.

Regarding `Brc1ccc(-c2ccc(C=CC3COC4(CCCC4)OO3)cc2)cc1` (stereo not shown) [Trioxane 7fe, 8-[(4′-bromo-[1,1′-biphenyl]-4yl)vinyl]-6,7,10-trioxaspiro (4,5) decane], where the note is “oral, 96 mg/kg”, the inhibition in vivo at 96 mg/kg was determined as 100% and the responders at 96 mg/kg is 60%. Where the note is “im, i.m., 96 mg/kg”, the inhibition in vivo at 96 mg/kg came out at 89.4% and the responders at 96 mg/kg was 0%.

As to `C=C(c1ccc(-c2ccc(Br)cc2)cc1)C1COC2(CCC(c3ccccc3)CC2)OO1` (stereo not shown) [Trioxane 7ff], for the setting “i.m., 96 mg/kg”, the “% Suppression on Day 4” value is on record as 46.1% and the Cured/treated is reported as 0/5. Where the note is “oral, 96 mg/kg”, the “% Suppression on Day 4” value was 100% and the Cured/treated is on record as 2/5.
